Results: patent US20150045553A1, “PHENYLTRIAZOLE DERIVATIVE” (TOSHO PHARMACEUTICAL CO., LTD, priority 2011, published 2015)
Read-outs that look alike come from different tables or passages of the source.

Tests used:
[1] = molecular target: T1, P-glycoprotein (human MDR1) (Homo sapiens, UniProt P08183); assay: P-glycoprotein substrate recognition test (LLC-GA5-COL300 cells, transwell); type: in vitro ADME; details: LLC-PK1, ratio of membrane permeation coefficients for apical→basal and basal→apical directions
T1 construct: expressed in transfected cells; host or cells: LLC-GA5-COL300 (LLC-PK1 pig kidney epithelial cells expressing human MDR1)
Method: (Test 4: P-Glycoprotein Substrate Recognition Test)
LLC-GA5-COL300 cells (Human MDR1 expressing system derived from pig kidney derived, cultured renal epithelial cell line LLC-PK1) were cultured on a transwell. Immediately before the test, the culture medium was replaced by Hank's balanced salt solution (HBSS) and the test was then conducted. A solution of an assay compound adjusted to a final concentration of 10 μM was added to the donor side of LLC-GA5-COL300 cells and after the passage of a predetermined period of time, a specified quantity of […] was sampled from the acceptor side. The concentration of the assay compound in the sample was measured by LC-MS/MS. From the amounts of the compound that accumulated and passed into the acceptor side, membrane permeation coefficients (×10^−6 cm/sec) were calculated for apical→basal and basal→apical directions and their relative ratio (efflux ratio) was determined to evaluate the P-glycoprotein substrate recognition.

[2] = Rat in vivo pharmacokinetic study (distribution among plasma, brain and cerebrospinal fluid); details: SD rats, single oral administration, 3 mg/kg, an hour after the administration
Method: (Test 3: Rat in vivo pharmacokinetic study)
SD rats were given a single oral administration of Compound No. 8, 19 or 22 at a dose of 3 mg/kg and an hour after the administration, the compound's distribution among the plasma, brain, and cerebrospinal fluid was checked. Quantification was effected by a high-performance liquid chromatography/tandem mass spectrometer API 4000 (LC-MS/MS; AB Sciex).

H3 receptor = molecular target: T2, H3 receptor (Rattus norvegicus, UniProt Q9QYN8); assay: Rat H3 receptor binding test (N-α-methyl[3H]histamine, frontal cortex membrane fraction); details: N-α-methyl[3H]histamine 0.75 nM, room temperature, an hour
T2 construct: The frontal cortex dissected from rats was homogenized; from tissue; host or cells: rat frontal cortex membrane fraction
Method: (Test 1: Rat H3 Receptor Binding Test)
The frontal cortex dissected from rats was homogenized with a Teflon (registered trademark) homogenizer in a 50 mM Tris-HCl buffer solution (pH 7.4) containing a protease inhibitor (Complete EDTA-free; Roche Diagnostics) and 5 mM EDTA. The homogenate was centrifuged at 48,000×g for 15 minutes. The supernatant was removed and the pellet was suspended in a 50 mM Tris-HCl buffer solution (pH 7.4) containing 5 mM EDTA and centrifuged at 48,000×g for 15 minutes. The supernatant was removed and the pellet was suspended in a 50 mM Tris-HCl buffer solution (pH 7.4) containing 5 mM EDTA to give a membrane fraction. The membrane fraction (the protein content in the final reaction mixture: 75 μg), N-α-methyl[^3H]histamine (PerkinElmer; final concentration: 0.75 nM) and a test drug were mixed and subjected to reaction at room temperature for an hour. After the end of the reaction, the reaction mixture was suction filtered through a 96-well GF/C filter plate pretreated with 0.3% polyethyleneimine; the filters were then washed five times with a 50 mM Tris-HCl buffer solution (pH 7.4) containing 5 mM EDTA. After the washing, the filters were dried and a scintillator was added to measure the residual radioactivity on the filter with TopCount (PerkinElmer).
The residual radioactivity in the presence of 10 μM thioperamide was taken as indicative of nonspecific binding and the difference from the residual radioactivity in the absence of thioperamide was taken as indicative of specific binding. Each of the test drugs was dissolved and diluted in DMSO at varying concentrations to plot a dose-response curve from the corresponding residual radioactivities; the concentration of test drug that inhibited the specific binding by 50% (IC50) was determined from this curve.

histamine H3 receptor = molecular target: T3, histamine H3 receptor (Rattus norvegicus, UniProt Q9QYN8); assay: [35S]GTP-γ-S binding test (R(−)-α-methyl histamine stimulated, frontal cortex membrane fraction); type: biochemical; details: R(−)-α-methyl histamine 300 nM, [35S]GTP-γ-S 0.3 nM
T3 construct: The frontal cortex dissected from rats was homogenized; from tissue; host or cells: rat frontal cortex membrane fraction
Method: The frontal cortex dissected from rats was homogenized with a Teflon (registered trademark) homogenizer in a 30 mM Tris-HCl buffer solution (pH 7.4) containing 2.5 mM calcium chloride dihydrate. The homogenate was centrifuged at 48,000×g for 15 minutes. The supernatant was removed and the pellet was suspended in a 30 mM Tris-HCl buffer solution (pH 7.4) containing 2.5 mM calcium chloride dihydrate and centrifuged at 48,000×g for 15 minutes. The supernatant was removed and the pellet was suspended in a 30 mM Tris-HCl buffer solution (pH 7.4) containing 2.5 mM calcium chloride dihydrate and after incubation at 37° C. for 30 minutes, the suspension was centrifuged at 48,000×g for 15 minutes. The resulting supernatant was removed and the pellet was suspended in a 20 mM HEPES buffer solution (pH 7.4) containing 100 mM sodium chloride and 10 mM magnesium chloride to give a membrane fraction. […] After the washing, the filters were dried and a scintillator was added to measure the residual radioactivity on the filter with TopCount (PerkinElmer).
The residual radioactivity in the absence of R(−)-α-methyl histamine was taken as indicative of nonspecific binding and the difference from the residual radioactivity in the presence of R(−)-α-methyl histamine was taken as indicative of specific binding. […]

[3] = brain, read-out: intracerebral concentration
[4] = brain/plasma, read-out: brain/plasma movement ratio
[5] = cerebrospinal fluid, read-out: cerebrospinal fluid concentration
[6] = cerebrospinal fluid/plasma, read-out: cerebrospinal fluid/plasma movement ratio

T2 sequence (Q9QYN8 whole entry): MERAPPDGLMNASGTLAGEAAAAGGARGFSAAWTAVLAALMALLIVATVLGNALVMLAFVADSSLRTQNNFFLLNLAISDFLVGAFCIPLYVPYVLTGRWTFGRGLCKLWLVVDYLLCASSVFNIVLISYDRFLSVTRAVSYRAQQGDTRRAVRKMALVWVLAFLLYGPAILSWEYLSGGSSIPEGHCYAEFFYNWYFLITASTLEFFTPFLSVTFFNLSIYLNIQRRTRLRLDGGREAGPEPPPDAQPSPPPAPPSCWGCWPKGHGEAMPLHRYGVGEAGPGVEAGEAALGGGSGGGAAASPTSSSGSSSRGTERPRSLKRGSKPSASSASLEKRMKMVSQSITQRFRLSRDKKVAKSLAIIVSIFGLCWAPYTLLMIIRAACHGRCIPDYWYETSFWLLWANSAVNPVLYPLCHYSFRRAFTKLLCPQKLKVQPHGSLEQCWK
T1 sequence (P08183 whole entry): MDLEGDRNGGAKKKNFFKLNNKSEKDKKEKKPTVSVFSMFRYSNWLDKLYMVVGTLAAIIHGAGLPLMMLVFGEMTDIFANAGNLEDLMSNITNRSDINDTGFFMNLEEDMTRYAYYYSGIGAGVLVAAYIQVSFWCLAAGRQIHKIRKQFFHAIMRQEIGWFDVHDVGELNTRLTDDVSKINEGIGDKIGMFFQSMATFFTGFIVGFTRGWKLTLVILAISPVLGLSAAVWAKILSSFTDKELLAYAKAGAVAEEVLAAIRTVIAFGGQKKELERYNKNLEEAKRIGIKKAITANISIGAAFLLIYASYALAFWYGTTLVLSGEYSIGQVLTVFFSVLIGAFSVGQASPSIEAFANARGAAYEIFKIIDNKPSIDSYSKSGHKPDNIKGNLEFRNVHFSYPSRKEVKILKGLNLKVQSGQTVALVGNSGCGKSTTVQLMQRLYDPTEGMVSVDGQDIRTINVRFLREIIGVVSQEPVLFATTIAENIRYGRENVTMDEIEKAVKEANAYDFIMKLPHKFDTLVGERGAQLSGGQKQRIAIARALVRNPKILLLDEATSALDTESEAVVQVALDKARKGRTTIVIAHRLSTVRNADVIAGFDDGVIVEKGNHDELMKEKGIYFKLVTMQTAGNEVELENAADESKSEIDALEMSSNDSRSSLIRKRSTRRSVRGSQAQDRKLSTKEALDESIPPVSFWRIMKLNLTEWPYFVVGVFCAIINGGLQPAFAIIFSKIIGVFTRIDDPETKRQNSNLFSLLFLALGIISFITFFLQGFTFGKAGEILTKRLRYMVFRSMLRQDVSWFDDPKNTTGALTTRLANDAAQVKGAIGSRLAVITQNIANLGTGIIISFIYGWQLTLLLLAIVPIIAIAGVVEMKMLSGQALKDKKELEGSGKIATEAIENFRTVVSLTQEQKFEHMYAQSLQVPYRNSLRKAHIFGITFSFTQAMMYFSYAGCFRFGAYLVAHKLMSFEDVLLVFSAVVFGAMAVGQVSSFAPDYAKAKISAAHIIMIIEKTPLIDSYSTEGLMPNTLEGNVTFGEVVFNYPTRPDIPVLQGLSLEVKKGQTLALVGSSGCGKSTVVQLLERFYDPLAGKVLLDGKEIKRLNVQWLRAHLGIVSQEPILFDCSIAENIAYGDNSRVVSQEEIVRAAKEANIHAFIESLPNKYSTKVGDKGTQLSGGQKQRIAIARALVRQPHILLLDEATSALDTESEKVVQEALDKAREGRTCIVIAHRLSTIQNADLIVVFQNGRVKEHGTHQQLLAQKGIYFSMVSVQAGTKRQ
T3 sequence (Q9QYN8 whole entry): as the sequence (Q9QYN8 whole entry) above

efflux ratio at 10 μM [1]	concentration at 1 h [2, 3] [ng/g]	Kp at 1 h [2, 4]	concentration at 1 h [2, 5] [ng/mL]	Kp at 1 h [2, 6]	IC50 (H3 receptor) [nM]	IC50 (histamine H3 receptor) [nM]	Structure (SMILES)
1.1	209	1.5	67.6	0.5	5.4		OCc1cn(-c2ccc(OC3CCN(C4CCC4)CC3)cc2)nn1 [Compound No. 22, (1-{4-[(1-cyclobutylpiperidin-4-yl)oxy]phenyl}-1H-1,2,3-triazol-4-yl)methanol]
					3.6		c1cc(-n2cc(C3CC3)nn2)ccc1OC1CCN(C2CCC2)CC1 [Compound No. 4, 1-cyclobutyl-4-[4-(4-cyclopropyl-1H-1,2,3-triazol-1-yl)phenoxy]piperidine]

The next lines start with the compound.

Structure (SMILES)	efflux ratio at 10 μM [1]	concentration at 1 h [2, 3] [ng/g]	Kp at 1 h [2, 4]	concentration at 1 h [2, 5] [ng/mL]	Kp at 1 h [2, 6]	IC50 (H3 receptor) [nM]	IC50 (histamine H3 receptor) [nM]
CNC(=O)c1cn(-c2ccc(OC3CCN(C4CCC4)CC3)cc2)nn1 [Compound No. 19, 1-{4-[(1-cyclobutylpiperidin-4-yl)oxy]phenyl}-N-methyl-1H-1,2,3-triazole-4-carboxamide]	0.7	820	4.4	134	0.7	22	
O=C(c1cn(-c2ccc(OC3CCN(C4CCC4)CC3)cc2)nn1)N1CCCC1 [Compound No. 8, (1-{4-[(1-cyclobutylpiperidin-4-yl)oxy]phenyl}-1H-1,2,3-triazol-4-yl)(pyrrolidin-1-yl)methanone]	1	45.7	3	2.9	0.2	1.8	≤ 100
CC(C)(C)c1cn(-c2ccc(OC3CCN(C4CCC4)CC3)cc2)nn1 [compound 7, 4-[4-(4-tert-butyl-1H-1,2,3-triazol-1-yl)phenoxy]-1-cyclobutylpiperidine]						4.9	
CNC(=O)Cc1cn(-c2ccc(OC3CCN(C4CCC4)CC3)cc2)nn1 [compound 14, 2-(1-{4-[(1-cyclobutylpiperidin-4-yl)oxy]phenyl}-1H-1,2,3-triazol-4-yl)-N-methylacetamide]						32	
